Assay results published in patent US5006468A, “Novel urease and method of producing the same” (Suntory Limited, priority 1987, dated 1991).

Test system: urease produced by Arthrobacter mobilis SAM0752 (FERM BP-2127)
Assay: Km value for urea of the purified urease
Format: biochemical
Details: 0.1M acetic acid buffer (pH 4.5), 37° C.
Method: The activity was determined by measuring the amount of ammonia produced by decomposition of urea during the enzyme reaction per unit of time. In particular, 0.025 ml of an enzyme solution was added to a reaction solution containing 0.2 ml of a 0.1M acetic acid buffer (pH 4.5) and 0.025 ml of a 0.1M urea solution, followed by incubation at 37° C. for a given time (10 to 20 minutes). The reaction was terminated by adding 0.025 ml of a 33% trichloroacetic acid solution. […] of the reaction solution was added to 1 ml of a coloring solution which had been prepared by mixing 10 ml of a 0.3M phosphate buffer (pH 7.5), 0.56 ml of 25 mg/ml o-phthalaldehyde in ethanol, and 0.56 ml of 5 mg/ml 2-mercaptoethanol in ethanol. After allowing the thus-obtained mixture to stand for 45 minutes at room temperature, the increase in absorbance at a wavelength of 410 nm was measured. The enzyme activity was then calculated from a calibration curve which was formed using predetermined amounts of ammonium chloride as a reference substance. This method was based on the method by Heini et al. [Eur. J. Biochem., 162, 541 (1987)]. The activity unit of the enzyme was defined as the amount of ammonia produced in terms of μ mol/min.

`NC(N)=O` [urea] gave a Km (20% ethanol added) of ~3.7 mM and a Km (no ethanol added) of ~3.6 mM.
